Results taken from PubChem BioAssay (NCI).
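Grown in 96-well plates, cells were treated for 48 hours with each compound at five concentrations. Insufficient inhibition: endpoint recorded as highest concentration tested. GI50: concentration for 50% inhibition of growth. TGI: total growth inhibition.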

Assays:
Assay in all cases: NCI tumour cell line growth inhibition, 48 h
K-562 leukemia = system: K-562 leukemia
PC-3 prostate = system: PC-3 prostate
NCI/ADR-RES ovarian = system: NCI/ADR-RES ovarian
OVCAR-3 ovarian = system: OVCAR-3 ovarian
DU-145 prostate = system: DU-145 prostate
HCT-15 colon = system: HCT-15 colon
HT29 colon = system: HT29 colon
EKVX NSCLC = system: EKVX NSCLC
NCI-H522 lung = system: NCI-H522 lung
HCC-2998 colon = system: HCC-2998 colon
BT-549 breast = system: BT-549 breast
COLO 205 colon = system: COLO 205 colon
TK-10 renal = system: TK-10 renal
UACC-62 melanoma = system: UACC-62 melanoma
SR leukemia = system: SR leukemia
SF-295 CNS = system: SF-295 CNS
MDA-MB-435 = system: MDA-MB-435
OVCAR-5 ovarian = system: OVCAR-5 ovarian
RPMI-8226 leukemia = system: RPMI-8226 leukemia
NCI-H23 lung = system: NCI-H23 lung
KM12 colon = system: KM12 colon
CCRF-CEM leukemia = system: CCRF-CEM leukemia
SF-539 CNS = system: SF-539 CNS
A498 renal = system: A498 renal
UACC-257 melanoma = system: UACC-257 melanoma
SK-MEL-28 melanoma = system: SK-MEL-28 melanoma
SN12C renal = system: SN12C renal
ACHN renal = system: ACHN renal
UO-31 renal = system: UO-31 renal
T-47D breast = system: T-47D breast
IGROV1 ovarian = system: IGROV1 ovarian
OVCAR-4 ovarian = system: OVCAR-4 ovarian
HL-60(TB) leukemia = system: HL-60(TB) leukemia
RXF 393 renal = system: RXF 393 renal
LOX IMVI melanoma = system: LOX IMVI melanoma
MDA-MB-231 breast = system: MDA-MB-231 breast
U251 CNS = system: U251 CNS
HCT-116 colon = system: HCT-116 colon
SK-OV-3 ovarian = system: SK-OV-3 ovarian
MALME-3M melanoma = system: MALME-3M melanoma
SK-MEL-2 melanoma = system: SK-MEL-2 melanoma
HS 578T breast = system: HS 578T breast
OVCAR-8 ovarian = system: OVCAR-8 ovarian
SW-620 colon = system: SW-620 colon
HOP-62 NSCLC = system: HOP-62 NSCLC
NCI-H226 lung = system: NCI-H226 lung
CAKI-1 renal = system: CAKI-1 renal
SNB-75 CNS = system: SNB-75 CNS
A549 NSCLC = system: A549 NSCLC
786-0 renal = system: 786-0 renal
M14 melanoma = system: M14 melanoma

In the case of `CO/N=C(/COc1c(-c2ccccc2)oc2ccccc2c1=O)c1ccc(OC)cc1`, the GI50 (K-562 leukemia) is reported as 42.5 µM, the TGI (K-562 leukemia) is reported as greater than 100 µM and the GI50 (PC-3 prostate) is reported as greater than 100 µM. For the same compound, the TGI (PC-3 prostate) was greater than 100 µM, the GI50 (NCI/ADR-RES ovarian) was 76.2 µM and the TGI (NCI/ADR-RES ovarian) was greater than 100 µM. The GI50 (OVCAR-3 ovarian) was greater than 100 µM, the TGI (OVCAR-3 ovarian) was greater than 100 µM and the GI50 (DU-145 prostate) was greater than 100 µM. For the same compound, the TGI (DU-145 prostate) was greater than 100 µM, the GI50 (HCT-15 colon) was greater than 100 µM and the TGI (HCT-15 colon) was greater than 100 µM. It also gave a GI50 (HT29 colon) of 51.6 µM, a TGI (HT29 colon) greater than 100 µM and a GI50 (EKVX NSCLC) greater than 100 µM. The TGI (EKVX NSCLC) was greater than 100 µM, the GI50 (NCI-H522 lung) was 53.3 µM and the TGI (NCI-H522 lung) was greater than 100 µM. It also gave a GI50 (HCC-2998 colon) greater than 100 µM, a TGI (HCC-2998 colon) greater than 100 µM and a GI50 (BT-549 breast) greater than 100 µM. It also gave a TGI (BT-549 breast) greater than 100 µM, a GI50 (COLO 205 colon) greater than 100 µM and a TGI (COLO 205 colon) greater than 100 µM. The GI50 (TK-10 renal) was greater than 100 µM, the TGI (TK-10 renal) was greater than 100 µM and the GI50 (UACC-62 melanoma) was 53.5 µM. The TGI (UACC-62 melanoma) was greater than 100 µM, the GI50 (SR leukemia) was 9.1 µM and the TGI (SR leukemia) was 53.4 µM. The GI50 (SF-295 CNS) was greater than 100 µM, the TGI (SF-295 CNS) was greater than 100 µM and the GI50 (MDA-MB-435) was 30.7 µM. For the same compound, the TGI (MDA-MB-435) was greater than 100 µM, the GI50 (OVCAR-5 ovarian) was greater than 100 µM and the TGI (OVCAR-5 ovarian) was greater than 100 µM. It also gave a GI50 (RPMI-8226 leukemia) of 41.9 µM, a TGI (RPMI-8226 leukemia) greater than 100 µM and a GI50 (NCI-H23 lung) greater than 100 µM. It also gave a TGI (NCI-H23 lung) greater than 100 µM, a GI50 (KM12 colon) of 56.1 µM and a TGI (KM12 colon) greater than 100 µM. For the same compound, the GI50 (CCRF-CEM leukemia) was 60 µM, the TGI (CCRF-CEM leukemia) was greater than 100 µM and the GI50 (SF-539 CNS) was greater than 100 µM. It also gave a TGI (SF-539 CNS) greater than 100 µM, a GI50 (A498 renal) of 32.9 µM and a TGI (A498 renal) greater than 100 µM. The GI50 (UACC-257 melanoma) was greater than 100 µM, the TGI (UACC-257 melanoma) was greater than 100 µM and the GI50 (SK-MEL-28 melanoma) was greater than 100 µM. For the same compound, the TGI (SK-MEL-28 melanoma) was greater than 100 µM, the GI50 (SN12C renal) was 76.7 µM and the TGI (SN12C renal) was greater than 100 µM. For the same compound, the GI50 (ACHN renal) was greater than 100 µM, the TGI (ACHN renal) was greater than 100 µM and the GI50 (UO-31 renal) was 61.3 µM. It also gave a TGI (UO-31 renal) greater than 100 µM, a GI50 (T-47D breast) of 26.9 µM and a TGI (T-47D breast) greater than 100 µM. The GI50 (IGROV1 ovarian) was greater than 100 µM, the TGI (IGROV1 ovarian) was greater than 100 µM and the GI50 (OVCAR-4 ovarian) was 81.4 µM. It also gave a TGI (OVCAR-4 ovarian) greater than 100 µM, a GI50 (HL-60(TB) leukemia) of 21.5 µM and a TGI (HL-60(TB) leukemia) greater than 100 µM. For the same compound, the GI50 (RXF 393 renal) was greater than 100 µM, the TGI (RXF 393 renal) was greater than 100 µM and the GI50 (LOX IMVI melanoma) was greater than 100 µM. For the same compound, the TGI (LOX IMVI melanoma) was greater than 100 µM, the GI50 (MDA-MB-231 breast) was 31.3 µM and the TGI (MDA-MB-231 breast) was greater than 100 µM. For the same compound, the GI50 (U251 CNS) was greater than 100 µM, the TGI (U251 CNS) was greater than 100 µM and the GI50 (HCT-116 colon) was greater than 100 µM. It also gave a TGI (HCT-116 colon) greater than 100 µM, a GI50 (SK-OV-3 ovarian) greater than 100 µM and a TGI (SK-OV-3 ovarian) greater than 100 µM. For the same compound, the GI50 (MALME-3M melanoma) was greater than 100 µM, the TGI (MALME-3M melanoma) was greater than 100 µM and the GI50 (SK-MEL-2 melanoma) was greater than 100 µM. For the same compound, the TGI (SK-MEL-2 melanoma) was greater than 100 µM, the GI50 (HS 578T breast) was greater than 100 µM and the TGI (HS 578T breast) was greater than 100 µM. The GI50 (OVCAR-8 ovarian) was greater than 100 µM, the TGI (OVCAR-8 ovarian) was greater than 100 µM and the GI50 (SW-620 colon) was greater than 100 µM. For the same compound, the TGI (SW-620 colon) was greater than 100 µM, the GI50 (HOP-62 NSCLC) was greater than 100 µM and the TGI (HOP-62 NSCLC) was greater than 100 µM. The GI50 (NCI-H226 lung) was greater than 100 µM, the TGI (NCI-H226 lung) was greater than 100 µM and the GI50 (CAKI-1 renal) was greater than 100 µM. It also gave a TGI (CAKI-1 renal) greater than 100 µM, a GI50 (SNB-75 CNS) of 58.7 µM and a TGI (SNB-75 CNS) greater than 100 µM. The GI50 (A549 NSCLC) was greater than 100 µM, the TGI (A549 NSCLC) was greater than 100 µM and the GI50 (786-0 renal) was greater than 100 µM. The TGI (786-0 renal) was greater than 100 µM, the GI50 (M14 melanoma) was greater than 100 µM and the TGI (M14 melanoma) was greater than 100 µM.
